According to patent US6969738B2, “Malic acid diester surfactants” (Air Products and Chemicals, Inc., priority 1999, dated 2005):

Assay: Solubility limit in water from surface tension/ln concentration curve
Assay type: physicochemical
Conditions: distilled water, 25° C.
Experimental: (§1) Solutions of the materials of Examples 1-10 in distilled water were prepared. […] The pC20 value is defined as the negative logarithm of the molar concentration of surfactant required to decrease the surface tension of an aqueous solution to […], that is, 20 dyne/cm below that of pure water when the measurement is performed at 0.1 b/s. This value is a measure of the efficiency of a surfactant. […] In addition, the relative efficiency of surfactants can be obtained by comparing surface tension reduction of solutions containing the same amount of different surfactants. Such data is given for 0.1 wt % solutions of the dialkylmalates at 1.0 and 6.0 bubbles/second (b/s). The solubility limit was determined by intersection of the linear portion of a surface tension/In concentration curve with the limiting surface tension as is described in many textbooks. The limiting surface tensions at 0.1, 1, 6 and 20 b/s represent the lowest surface tensions in water which can be achieved at the given surface creation rates for a given surfactant regardless of the amount of surfactant used and is used to evaluate the effectiveness of a surfactant. These values give information about the relative ability of a surfactant to reduce surface defects under near-equilibrium conditions (0.1 b/s) through very dynamic conditions (20 b/s). Lower surface tensions would allow the elimination of defects upon application of a formulation onto lower energy surfaces.

Structure (SMILES)	solubility limit [Weight %]
CCCCCCOC(=O)CC(O)C(=O)OCCCCCC (racemic) [Example 8, Dihexyl-DL-malate]	0.005
O=C(CC(O)C(=O)OCc1ccccc1)OCc1ccccc1 (racemic) [Example 10, Dibenzyl-DL-malate]	0.08

Second part, the compound after the results:

solubility limit [Weight %]	Structure (SMILES)
0.04	CCC(C)COC(=O)CC(O)C(=O)OCC(C)CC (racemic) [Example 7, Di(2-methylbutyl)-DL-malate]
0.02	CC(C)CC(C)OC(=O)CC(O)C(=O)OC(C)CC(C)C (racemic) [Example 9, Di(4-methyl-2-pentyl)-DL-malate]
5	CC(C)OC(=O)C[C@H](O)C(=O)OC(C)C [Example 1, Diisopropyl-(S)-(−)-malate]

Assay: Foam test of 0.1 wt % solutions, procedure based upon ASTM D 1173-53
Assay type: physicochemical
Conditions: 0.1 wt % solution
Experimental: The foaming properties of 0.1 wt % solutions of the dialkylmalate surfactants of this invention were examined using a procedure based upon ASTM D 1173-53. In this test, a 0.1 wt % solution of the surfactant is added from an elevated foam pipette to a foam receiver containing the same solution. The foam height is measured at the completion of the addition (“Initial Foam Height”) and the time required for the foam to dissipate at the air-liquid interface (“Time to 0 Foam”) is recorded. This test provides a comparison between the foaming characteristics of various surfactant solutions. In general, in coatings, inks, adhesives, fountain solutions and agricultural compositions, foam is undesirable because it complicates handling and can lead to coating and print defects, and to inefficient application of agricultural materials.

Structure (SMILES)	initial foam [cm]	time to zero foam [s]
CCCCCCOC(=O)CC(O)C(=O)OCCCCCC (racemic) [Example 8, Dihexyl-DL-malate]	0.5	0.1
O=C(CC(O)C(=O)OCc1ccccc1)OCc1ccccc1 (racemic) [Example 10, Dibenzyl-DL-malate]	0	0

Next, values leading:

initial foam [cm]	time to zero foam [s]	Structure (SMILES)
1.2	0.1	CCC(C)COC(=O)CC(O)C(=O)OCC(C)CC (racemic) [Example 7, Di(2-methylbutyl)-DL-malate]
0	0	CC(C)CC(C)OC(=O)CC(O)C(=O)OC(C)CC(C)C (racemic) [Example 9, Di(4-methyl-2-pentyl)-DL-malate]
1.3	14	CC(C)OC(=O)C[C@H](O)C(=O)OC(C)C [Example 1, Diisopropyl-(S)-(−)-malate]

Assay: Dynamic surface tension of aqueous solutions, maximum bubble pressure method
Assay type: physicochemical
Conditions: 0.1 wt % solution, 25° C., 1 b/s
Excerpt: In the following Examples dynamic surface tension data were obtained for aqueous solutions of various compounds using the maximum bubble pressure method at bubble rates from 0.1 bubbles/second (b/s) to 20 b/s. […] In practical terms, high bubble rates correspond to high printing speeds in lithographic printing, high spray or roller velocities in coating applications, and rapid application rates for agricultural products.
as §1

Structure (SMILES)	γ(0.1 wt % solution) (1 b/s) [dyne/cm]
CCCCCCOC(=O)CC(O)C(=O)OCCCCCC (racemic) [Example 8, Dihexyl-DL-malate]	58.8
O=C(CC(O)C(=O)OCc1ccccc1)OCc1ccccc1 (racemic) [Example 10, Dibenzyl-DL-malate]	61.5

The remaining lines, values ahead:

γ(0.1 wt % solution) (1 b/s) [dyne/cm]	Structure (SMILES)
38.9	CCC(C)COC(=O)CC(O)C(=O)OCC(C)CC (racemic) [Example 7, Di(2-methylbutyl)-DL-malate]
46.2	CC(C)CC(C)OC(=O)CC(O)C(=O)OC(C)CC(C)C (racemic) [Example 9, Di(4-methyl-2-pentyl)-DL-malate]
59.2	CC(C)OC(=O)C[C@H](O)C(=O)OC(C)C [Example 1, Diisopropyl-(S)-(−)-malate]

Same assay, conditions: 0.1 wt % solution, 25° C., 6 b/s

Structure (SMILES)	γ(0.1 wt % solution) (6 b/s) [dyne/cm]
CCCCCCOC(=O)CC(O)C(=O)OCCCCCC (racemic) [Example 8, Dihexyl-DL-malate]	52.0
O=C(CC(O)C(=O)OCc1ccccc1)OCc1ccccc1 (racemic) [Example 10, Dibenzyl-DL-malate]	65.2

More lines, now with the values ahead:

γ(0.1 wt % solution) (6 b/s) [dyne/cm]	Structure (SMILES)
41.2	CCC(C)COC(=O)CC(O)C(=O)OCC(C)CC (racemic) [Example 7, Di(2-methylbutyl)-DL-malate]
56.4	CC(C)CC(C)OC(=O)CC(O)C(=O)OC(C)CC(C)C (racemic) [Example 9, Di(4-methyl-2-pentyl)-DL-malate]
60.1	CC(C)OC(=O)C[C@H](O)C(=O)OC(C)C [Example 1, Diisopropyl-(S)-(−)-malate]

Same assay, conditions: negative logarithm of molar concentration giving 52.1 dyne/cm at 0.1 b/s, 25° C.

Structure (SMILES)	pC20
CCCCCCOC(=O)CC(O)C(=O)OCCCCCC (racemic) [Example 8, Dihexyl-DL-malate]	3.25
O=C(CC(O)C(=O)OCc1ccccc1)OCc1ccccc1 (racemic) [Example 10, Dibenzyl-DL-malate]	2.23

The remaining lines, values ahead:

pC20	Structure (SMILES)
3.47	CCC(C)COC(=O)CC(O)C(=O)OCC(C)CC (racemic) [Example 7, Di(2-methylbutyl)-DL-malate]
3.84	CC(C)CC(C)OC(=O)CC(O)C(=O)OC(C)CC(C)C (racemic) [Example 9, Di(4-methyl-2-pentyl)-DL-malate]
1.83	CC(C)OC(=O)C[C@H](O)C(=O)OC(C)C [Example 1, Diisopropyl-(S)-(−)-malate]

Same assay, conditions: water, 25° C., 0.1 b/s

Structure (SMILES)	limiting γ (0.1 b/s) [Dyne/cm]
CCCCCCOC(=O)CC(O)C(=O)OCCCCCC (racemic) [Example 8, Dihexyl-DL-malate]	55.6
O=C(CC(O)C(=O)OCc1ccccc1)OCc1ccccc1 (racemic) [Example 10, Dibenzyl-DL-malate]	54.0

Other lines, results leading:

limiting γ (0.1 b/s) [Dyne/cm]	Structure (SMILES)
37.8	CCC(C)COC(=O)CC(O)C(=O)OCC(C)CC (racemic) [Example 7, Di(2-methylbutyl)-DL-malate]
40.8	CC(C)CC(C)OC(=O)CC(O)C(=O)OC(C)CC(C)C (racemic) [Example 9, Di(4-methyl-2-pentyl)-DL-malate]
33.6	CC(C)OC(=O)C[C@H](O)C(=O)OC(C)C [Example 1, Diisopropyl-(S)-(−)-malate]

Same assay, conditions: water, 25° C., 1 b/s

Structure (SMILES)	limiting γ (1 b/s) [Dyne/cm]
CCCCCCOC(=O)CC(O)C(=O)OCCCCCC (racemic) [Example 8, Dihexyl-DL-malate]	65.2
O=C(CC(O)C(=O)OCc1ccccc1)OCc1ccccc1 (racemic) [Example 10, Dibenzyl-DL-malate]	57.7

Further lines, results first:

limiting γ (1 b/s) [Dyne/cm]	Structure (SMILES)
38.9	CCC(C)COC(=O)CC(O)C(=O)OCC(C)CC (racemic) [Example 7, Di(2-methylbutyl)-DL-malate]
50.9	CC(C)CC(C)OC(=O)CC(O)C(=O)OC(C)CC(C)C (racemic) [Example 9, Di(4-methyl-2-pentyl)-DL-malate]
33.8	CC(C)OC(=O)C[C@H](O)C(=O)OC(C)C [Example 1, Diisopropyl-(S)-(−)-malate]

Same assay, conditions: water, 25° C., 6 b/s

Structure (SMILES)	limiting γ (6 b/s) [Dyne/cm]
CCCCCCOC(=O)CC(O)C(=O)OCCCCCC (racemic) [Example 8, Dihexyl-DL-malate]	69.3
O=C(CC(O)C(=O)OCc1ccccc1)OCc1ccccc1 (racemic) [Example 10, Dibenzyl-DL-malate]	60.3

The next lines start with the values.

limiting γ (6 b/s) [Dyne/cm]	Structure (SMILES)
41.2	CCC(C)COC(=O)CC(O)C(=O)OCC(C)CC (racemic) [Example 7, Di(2-methylbutyl)-DL-malate]
63.9	CC(C)CC(C)OC(=O)CC(O)C(=O)OC(C)CC(C)C (racemic) [Example 9, Di(4-methyl-2-pentyl)-DL-malate]
34.0	CC(C)OC(=O)C[C@H](O)C(=O)OC(C)C [Example 1, Diisopropyl-(S)-(−)-malate]

Same assay, conditions: water, 25° C., 20 b/s

Structure (SMILES)	limiting γ (20 b/s) [Dyne/cm]
CCCCCCOC(=O)CC(O)C(=O)OCCCCCC (racemic) [Example 8, Dihexyl-DL-malate]	71.2
O=C(CC(O)C(=O)OCc1ccccc1)OCc1ccccc1 (racemic) [Example 10, Dibenzyl-DL-malate]	70.0

Next, values leading:

limiting γ (20 b/s) [Dyne/cm]	Structure (SMILES)
49.7	CCC(C)COC(=O)CC(O)C(=O)OCC(C)CC (racemic) [Example 7, Di(2-methylbutyl)-DL-malate]
69.4	CC(C)CC(C)OC(=O)CC(O)C(=O)OC(C)CC(C)C (racemic) [Example 9, Di(4-methyl-2-pentyl)-DL-malate]
35.3	CC(C)OC(=O)C[C@H](O)C(=O)OC(C)C [Example 1, Diisopropyl-(S)-(−)-malate]

Same assay, conditions: water, 25° C., 20 b/s; listed as diisopropyl-(S)-(−)-malate

limiting γ (20 b/s) [Dyne/cm]	Structure (SMILES)
< 34	CC(C)OC(=O)C[C@H](O)C(=O)OC(C)C [Example 1, Diisopropyl-(S)-(−)-malate]
